Data taken from patent US20230398130A1, “METHODS AND COMPOSITIONS FOR DIFFERENTIATING STEM CELLS” (Massachusetts Institute of Technology, priority 2020, published 2023).

What was measured:
ISC-enriched organoids [1] = assay: Primary screen, 384-well 2.5-D organoid differentiation (ENR+CD, 6 days): basal lysozyme secretion (LYZ.NS); type: cell-based, murine; details: primary screen; for Dose.FC.LYZ.NS (log 2 fold change): vs plate median
Text: (§1) High-throughput screening.

ISC-enriched organoids [2] = assay: Primary screen, 384-well 2.5-D organoid differentiation (ENR+CD, 6 days): carbachol-induced lysozyme secretion (LYZ.S); type: cell-based, murine; details: primary screen, vs plate median
Text: as §1

ISC-enriched organoids [3] = assay: Primary screen, 384-well 2.5-D organoid differentiation (ENR+CD, 6 days, Target Selective Inhibitor Library, vs whole-plate median): ATP (CellTiter-Glo 3D, CTG); details: primary screen; for Dose.FC.CTG (log 2 fold change): vs plate median

SMILES	Z.LYZ.NS (standard z score) (ISC-enriched organoids [1]; Dose 0.08 uM)	Dose.FC.LYZ.NS (log 2 fold change) (ISC-enriched organoids [1]; Dose 0.08 uM)	Z.LYZ.NS (standard z score) (ISC-enriched organoids [1]; Dose 0.40 uM)	Dose.FC.LYZ.NS (log 2 fold change) (ISC-enriched organoids [1]; Dose 0.40 uM)	Z.LYZ.NS (standard z score) (ISC-enriched organoids [1]; Dose 2.00 uM)	Dose.FC.LYZ.NS (log 2 fold change) (ISC-enriched organoids [1]; Dose 2.00 uM)	Z.LYZ.NS (standard z score) (ISC-enriched organoids [1]; Dose 10.00 uM)	Dose.FC.LYZ.NS (log 2 fold change) (ISC-enriched organoids [1]; Dose 10.00 uM)	Dose.FC.LYZ.S (log 2 fold change) (ISC-enriched organoids [2]; Dose 0.08 uM)	Dose.FC.LYZ.S (log 2 fold change) (ISC-enriched organoids [2]; Dose 0.40 uM)	Dose.FC.LYZ.S (log 2 fold change) (ISC-enriched organoids [2]; Dose 2.00 uM)	Dose.FC.LYZ.S (log 2 fold change) (ISC-enriched organoids [2]; Dose 10.00 uM)	Z.CTG (standard z score) (ISC-enriched organoids [3]; Dose 0.08 uM)	Dose.FC.CTG (log 2 fold change) (ISC-enriched organoids [3]; Dose 0.08 uM)	Z.CTG (standard z score) (ISC-enriched organoids [3]; Dose 0.40 uM)	Dose.FC.CTG (log 2 fold change) (ISC-enriched organoids [3]; Dose 0.40 uM)	Z.CTG (standard z score) (ISC-enriched organoids [3]; Dose 2.00 uM)	Dose.FC.CTG (log 2 fold change) (ISC-enriched organoids [3]; Dose 2.00 uM)	Z.CTG (standard z score) (ISC-enriched organoids [3]; Dose 10.00 uM)	Dose.FC.CTG (log 2 fold change) (ISC-enriched organoids [3]; Dose 10.00 uM)
Cc1ccc(S(=O)(=O)Cc2nc(-c3ccc(C(=O)NCc4cccnc4)cc3)oc2C)cc1 [STF-118804]	−1.349	−0.155	−1.824	−0.210	−1.502	−0.172	−1.541	−0.177	−0.257	−0.212	−0.271	−0.300	−0.360	−0.151	−3.346	−1.401	−2.189	−0.916	−3.195	−1.338
O=C(/C=C/c1ccccc1)NC(NC(=S)Nc1ccc(Cl)cc1)C(Cl)(Cl)Cl (stereo not shown) [Sal003]	1.013	0.116	1.595	0.183	0.670	0.077	−2.142	−0.246	0.092	0.067	0.040	−0.408	0.456	0.191	0.370	0.155	0.468	0.196	−1.981	−0.829
Cn1cnc2c(F)c(Nc3ccc(Br)cc3Cl)c(C(=O)NOCCO)cc21 [Selumetinib (AZD6244)]	0.181	0.021	−0.188	−0.022	−0.847	−0.097	−1.220	−0.140	0.004	−0.047	−0.175	−0.211	0.393	0.164	−0.395	−0.165	−0.613	−0.257	−2.035	−0.852
CC(C)[C@H](O)C(=O)N[C@@H](C)C(=O)N[C@@H]1C(=O)N(C)CCc2ccccc21 [Semagacestat (LY450139)]	0.151	0.017	−0.181	−0.021	−0.704	−0.081	−0.942	−0.108	−0.014	−0.006	−0.081	−0.162	0.338	0.141	−0.494	−0.207	−0.306	−0.128	−2.045	−0.856
Nc1ccc(C(=O)[O-])c(O)c1.[Na+] [Sodium 4-Aminosalicylate]	0.695	0.080	0.354	0.041	1.354	0.156	0.796	0.091	0.162	0.050	0.099	0.143	0.283	0.119	0.488	0.204	0.092	0.038	0.590	0.247
O=[N+]([O-])c1ccc2c(c1)S(=O)(=O)C=C2 [Stattic]	1.131	0.130	0.189	0.022	1.276	0.147	−0.186	−0.021	0.150	0.033	0.082	−0.019	−0.191	−0.080	−0.011	−0.005	0.078	0.033	−0.060	−0.025
Cc1cn([C@H]2C=C[C@@H](CO)O2)c(=O)[nH]c1=O [Stavudine (d4T)]	0.620	0.071	0.027	0.003	0.074	0.009	−0.828	−0.095	0.134	0.001	−0.003	−0.120	0.226	0.095	0.351	0.147	0.179	0.075	−0.179	−0.075
Cc1ccc(-n2nccn2)c(C(=O)N2CCN(c3nc4cc(Cl)ccc4o3)CC[C@H]2C)c1 [Suvorexant (MK-4305)]	1.775	0.204	1.073	0.123	1.073	0.123	0.670	0.077	0.186	0.142	0.101	0.131	0.458	0.192	0.609	0.255	0.895	0.375	0.597	0.250
